Experimental data taken from US7632815B2, “Use of calmodulin kinase II inhibitors to treat myocardial dysfunction in structural heart disease” (Vanderbilt University, priority 2001, dated 2009).
Entries after “also recorded” stand apart in the source; their conditions may differ.

Key:
[1] = system: mice after myocardial infarction surgery; assay: Echocardiography 3 weeks after myocardial infarction surgery; format: in vivo, mouse; conditions: for LV internal diameter (LVID) during diastole / LV posterior wall (LVPW) wall thickness in diastole: between groups (KN-93 1 and 10, KN-92 30 μmol/Kg, AC3-I transgenic, WT); for cardiac hypertrophy / myocardial contractility (positive inotropic effect): FIG. 7; for Left ventricular (LV) fractional shortening: unanesthetized mice, vs WT or KN-92 30 μmol/Kg
From the text: FIGS. 7 A-D. CaMKII inhibition improves contractile function after myocardial infarction surgery. […] P<0.001 by ANOVA and asterisks indicate a significant difference compared to WT using a Bonferroni-corrected t test. B. LV internal diameter (LVID) during diastole is a marker of LV chamber dilation. […] C. LV posterior wall (LVPW) wall thickness in diastole is a measure of LV hypertrophy of the non-infarcted wall.
Myocardial infarction surgery: Surgery is routinely performed at the Vanderbilt mouse physiology core laboratory and is essentially identical to other published reports^18 8.^14 In brief, mice are anesthetized (pentobarbital 33 μg/g and ketamine 33 μg/g, i.p.) and placed on a rodent respirator (tidal vol. 0.5 ml, rate 120 breaths/min), the chest opened with a left parasternal thoracotomy, and the region of the mid-left anterior descending artery ligated with 8-0 suture. The chest is closed (running 5-0 suture), and the animal weaned from the respirator. Wild-type mice typically develop heart failure, as assessed by increased lung wet:dry weights. Sham operations omit the ligation step. Approximately 75% of animals survive surgery with a successfully infarcted anterior wall.

CaMKII [2] = assay: CaMKII inhibitory potency against a synthetic CaMKII substrate; format: biochemical; conditions: 'previous studies'
CaMKII [3] = assay: CaMKII activity assay in heart homogenate with syntide 2; format: in vivo, mouse
Procedure: CaMKII activity assays: CaMKII activity was assayed in AC3-I mice and littermate controls from whole heart (ventricular) homogenate with syntide 2-a synthetic substrate with ˜50 fold selectivity for CaMKII over CaMKIV,^9 using our previously published methods.^1

transgenic mice = assay: Baseline echocardiography of transgenic mice; format: in vivo, mouse
CaMKII isoforms = conditions: cited from earlier work
protein kinase A = conditions: cited from earlier work
protein kinase C = conditions: cited from earlier work
CAN+ transgenic mice = assay: Echocardiography in calcineurin (CAN+) transgenic dilated cardiomyopathy model; conditions: AC3-I+/CAN+ vs CAN+ mice
[4] = diastole or systole, AC3-I transgenic vs WT littermates

Compound: COc1ccc(S(=O)(=O)N(CCO)c2ccccc2CN(C)C/C=C/c2ccc(Cl)cc2)cc1 [KN-93]
- LV internal diameter (LVID) during diastole ([1]; 3 weeks after MI surgery): No significant differences
- LV posterior wall (LVPW) wall thickness in diastole ([1]; 3 weeks after MI surgery): No significant differences
- cardiac hypertrophy [1]: without affecting
- myocardial contractility (positive inotropic effect) [1]: increase
- Left ventricular (LV) fractional shortening ([1]; KN-93 1 μmol/Kg body weight daily, 3 weeks after MI surgery): significantly greater
- Left ventricular (LV) fractional shortening ([1]; KN-93 10 μmol/Kg body weight daily, 3 weeks after MI surgery): significantly greater

Compound: COc1ccc(S(=O)(=O)Nc2ccccc2CN(C)C/C=C/c2ccc(Cl)cc2)cc1 [KN-92]
- LV internal diameter (LVID) during diastole ([1]; 3 weeks after MI surgery): No significant differences
- LV posterior wall (LVPW) wall thickness in diastole ([1]; 3 weeks after MI surgery): No significant differences

Compound: KKALHRQEAVDCL [AC3-I]
- IC50 (CaMKII [2]): 500 nM
- Heart rate ([1]; 3 weeks after MI surgery, AC3-I transgenic compared to all other groups): significantly slower
- LV internal diameter (LVID) during diastole ([1]; 3 weeks after MI surgery): No significant differences
- LV posterior wall (LVPW) wall thickness in diastole ([1]; 3 weeks after MI surgery): No significant differences
- cardiac hypertrophy [1]: without affecting
- myocardial contractility (positive inotropic effect) [1]: increase
- Left ventricular fractional shortening ([1]; transgenically targeted AC3-I expression, after MI surgery, vs WT littermates): significantly better; also recorded: significantly greater
- total CaMKII activity (CaMKII [3]; ventricular homogenates, compared to AC3-C mice and WT littermates): significantly reduced
- cardiac CaMKII activity (CaMKII [3]; whole heart homogenates, AC3-I transgenic mice vs WT littermates): significantly reduced
- Left ventricular fractional shortening (transgenic mice; baseline, AC3-I transgenic vs WT littermates): not different
- Echocardiographic left ventricular dimensions (transgenic mice; [4]): not significantly different
- Interventricular septal thickness (transgenic mice; [4]): not different
- inhibition of CaMKII isoforms (CaMKII isoforms): inhibits all CaMKII isoforms
- activity against protein kinase A (protein kinase A): virtually devoid of activity
- activity against protein kinase C (protein kinase C): virtually devoid of activity
- heart rates (CAN+ transgenic mice): no significant differences

Compound: KLKALHAQERVDCL [AC3-C]
- total CaMKII activity (CaMKII [3]; AC3-C transgenic mice, FIG. 6): high
- Left ventricular fractional shortening (transgenic mice; AC3-C transgenic compared to AC3-I mice): significantly depressed
- left ventricular internal diameter (LVID) in diastole (transgenic mice; AC3-C transgenic vs AC3-I mice): significantly greater
